The values that follow come from patent US11918582B2 (RAPT Therapeutics, Inc., priority 2021, dated 2024).

This test deals with T1, human HPK1 (MAP4K1) (Homo sapiens, UniProt Q92918).
T1 construct: Recombinant human HPK1 kinase domain was obtained from ThermoFisher (Cat. #PV6357) and SignalChem (Cat. #M23-11G); purchased ThermoFisher; SignalChem PV6357; M23-11G
T1 sequence (Q92918 17-274 limits assumed): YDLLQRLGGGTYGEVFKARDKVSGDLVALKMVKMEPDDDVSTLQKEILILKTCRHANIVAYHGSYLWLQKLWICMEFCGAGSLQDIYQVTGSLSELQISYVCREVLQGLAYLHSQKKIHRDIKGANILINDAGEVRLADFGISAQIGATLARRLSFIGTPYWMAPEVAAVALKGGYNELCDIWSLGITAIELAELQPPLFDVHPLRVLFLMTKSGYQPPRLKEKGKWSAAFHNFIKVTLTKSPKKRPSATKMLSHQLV
Description: Biochemical assay for activity against HPK1 (ADP-Glo, MBP substrate). As to conditions: recombinant human HPK1 kinase domain, 1 nM enzyme, ADP-Glo luminescence. The method, boiled down: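 Recombinant human HPK1 kinase domain (1 nM solution) preincubated 15 min at room temperature with compounds in pH 7.5 HEPES buffer with NaCl, TCEP, MgCl2, Tween-20, BSA. MBP substrate with ATP added, reaction run 2 h at room temperature. ADP formation read by ADP-Glo luminescence to give IC50.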
(In general: In ADP-Glo the light output rises with the ADP produced.)

Structures can show the parent of a compound that is named as a salt.

In general, IC50 refers to the concentration at which inhibition is half-maximal. In the case of `COc1cc2c(cc1Nc1ncc3cnn(C[C@@H]4CCCCN4C(C)=O)c3n1)CN(C)CC2` [Example 134, (S)-1-(2-((6-((6-methoxy-2-methyl-1,2,3,4-tetrahydroisoquinolin-7-yl)amino)-1H-pyrazolo[3,4-d]pyrimidin-1-yl)methyl)piperidin-1-yl)ethan-1-one], the IC50 was less than 100 nM. As to `CNC(=O)[C@H]1CC[C@H](n2ncc3cnc(Nc4cc5c(cc4OC)CCN(C)C5)nc32)CC1` [Example 60, (1r,4r)-4-(6-((6-methoxy-2-methyl-1,2,3,4-tetrahydroisoquinolin-7-yl)amino)-1H-pyrazolo[3,4-d]pyrimidin-1-yl)-N-methylcyclohexane-1-carboxamide], the IC50 is less than 100 nM. With `COc1cc2c(cc1Nc1ncc3cnn(C4CCCN(C(C)=O)C4)c3n1)CN(C)CC2` (centres unmarked) [Example 109, 1-(3-(6-((6-methoxy-2-methyl-1,2,3,4-tetrahydroisoquinolin-7-yl)amino)-1H-pyrazolo[3,4-d]pyrimidin-1-yl)piperidin-1-yl)ethan-1-one], the IC50 is less than 100 nM. For the compound `COc1cc2c(cc1Nc1ncc3cnn(C[C@@H]4[C@@H](C)CCN4C(C)=O)c3n1)CN(C)CC2` (racemic) [Example 214, 1-[2-[[6-[(6-methoxy-2-methyl-3,4-dihydro-1H-isoquinolin-7-yl)amino]pyrazolo[3,4-d]pyrimidin-1-yl]methyl]-3-methyl-pyrrolidin-1-yl]ethenone], the 50% inhibitory concentration (IC50) was less than 100 nM.

For the compound `COc1cc2c(cc1Nc1ncc3cnn([C@H]4CCC[C@@H](O)C4)c3n1)CN(C)CC2` (relative stereo) [Example 23, cis-3-(6-((6-methoxy-2-methyl-1,2,3,4-tetrahydroisoquinolin-7-yl)amino)-1H-pyrazolo[3,4-d]pyrimidin-1-yl)cyclohexan-1-ol], the 50% inhibitory concentration (IC50) was less than 100 nM. As to `CN1CCc2ccc(Nc3ncc4cnn(C5CCCCC5)c4n3)cc2C1` [Example 102, N-(1-cyclohexyl-1H-pyrazolo[3,4-d]pyrimidin-6-yl)-2-methyl-1,2,3,4-tetrahydroisoquinolin-7-amine], the IC50 is less than 100 nM. The value for `CCN1CCc2cc(OC)c(Nc3ncc4cnn([C@H]5CC[C@H](CO)CC5)c4n3)cc2C1` [Example 168, [4-[6-[(2-ethyl-6-methoxy-3,4-dihydro-1H-isoquinolin-7-yl)amino]pyrazolo[3,4-d]pyrimidin-1-yl]cyclohexyl]methanol] was less than 100 nM; that for `COc1cc2c(cc1Nc1ncc3cnn(C[C@@H]4CCC[C@H]4CO)c3n1)CN(C)CC2` (racemic) [Example 160, Rac-trans-2-[[6-[(6-methoxy-2-methyl-3,4-dihydro-1H-isoquinolin-7-yl)amino]pyrazolo[3,4-d]pyrimidin-1-yl]methyl]cyclopentyl]methanol] was less than 100 nM; that for `COC(=O)N1CCC[C@H]1Cn1ncc2cnc(Nc3cc4c(cc3OC)CCN(C)C4)nc21` [Example 113, methyl (S)-2-((6-((6-methoxy-2-methyl-1,2,3,4-tetrahydroisoquinolin-7-yl)amino)-1H-pyrazolo[3,4-d]pyrimidin-1-yl)methyl)pyrrolidine-1-carboxylate trifluoroacetate] was less than 100 nM. The same measure for `COc1cc2c(cc1Nc1ncc3cnn(C[C@@H]4CCCN4C(C)=O)c3n1)CN(C)CC2` [Example 110, (S)-1-(2-((6-((6-methoxy-2-methyl-1,2,3,4-tetrahydroisoquinolin-7-yl)amino)-1H-pyrazolo[3,4-d]pyrimidin-1-yl)methyl)pyrrolidin-1-yl)ethan-1-one]: less than 100 nM; for `CN1CCc2ccc(Nc3ncc4cnn(CC5COC5)c4n3)cc2C1` [Example 14, 2-methyl-N-(1-(oxetan-3-ylmethyl)-1H-pyrazolo[3,4-d]pyrimidin-6-yl)-1,2,3,4-tetrahydroisoquinolin-7-amine]: less than 100 nM. The same measure for `COc1cc2c(cc1Nc1ncc3cnn([C@H]4CCC[C@H](C(=O)N(C)C)C4)c3n1)CN(C)CC2` (racemic) [Example 59, rac-(trans)-3-(6-((6-methoxy-2-methyl-1,2,3,4-tetrahydroisoquinolin-7-yl)amino)-1H-pyrazolo[3,4-d]pyrimidin-1-yl)-N,N-dimethylcyclohexane-1-carboxamide]: less than 100 nM; for `CN1CCc2ccc(Nc3ncc4cnn(CCS(C)(=O)=O)c4n3)cc2C1` [Example 150, 2-methyl-N-(1-(2-(methylsulfonyl)ethyl)-1H-pyrazolo[3,4-d]pyrimidin-6-yl)-1,2,3,4-tetrahydroisoquinolin-7-amine]: less than 100 nM; for `COc1cc2c(cc1Nc1ncc3cnn(C[C@H]4C[C@@H](NS(C)(=O)=O)C4)c3n1)CN(C)CC2` [Example 120, cis N-(3-((6-((6-methoxy-2-methyl-1,2,3,4-tetrahydroisoquinolin-7-yl)amino)-1H-pyrazolo[3,4-d]pyrimidin-1-yl)methyl)cyclobutyl)methanesulfonamide trifluoroacetate]: less than 100 nM. For `COc1cc2c(cc1Nc1ncc3cnn(C[C@@H]4CCC[C@@H]4C(=O)O)c3n1)CN(C)CC2` (racemic) [Example 162, Rac-cis-2-[[6-[(6-methoxy-2-methyl-3,4-dihydro-1H-isoquinolin-7-yl)amino]pyrazolo[3,4-d]pyrimidin-1-yl]methyl]cyclopentanecarboxylic Acid], the IC50 is less than 100 nM. The same measure for `COc1cc2c(cc1Nc1ncc3c(C)nn(CC[C@H](C)O)c3n1)CN(C)CC2` [Example 90, (2S)-4-[6-[(6-methoxy-2-methyl-3,4-dihydro-1H-isoquinolin-7-yl)amino]-3-methyl-pyrazolo[3,4-d]pyrimidin-1-yl]butan-2-ol]: less than 100 nM; for `COc1cc2c(cc1Nc1ncc3cnn(C4CCC(F)(F)CC4)c3n1)CN(C)CC2` [Example 192, N-[1-(4,4-difluorocyclohexyl)pyrazolo[3,4-d]pyrimidin-6-yl]-6-methoxy-2-methyl-3,4-dihydro-1H-isoquinolin-7-amine Hydrochloride]: less than 100 nM; for `COc1cc2c(cc1Nc1ncc3c(C)nn([C@H]4CC[C@@H](C(N)=O)CC4)c3n1)CN(C)CC2` [Example 51, (cis)-4-(6-((6-methoxy-2-methyl-1,2,3,4-tetrahydroisoquinolin-7-yl)amino)-3-methyl-1H-pyrazolo[3,4-d]pyrimidin-1-yl)cyclohexane-1-carboxamide]: less than 100 nM. For the compound `COc1cc2c(cc1Nc1ncc3cnn(C[C@H]4CCCCN4C(C)=O)c3n1)CN(C)CC2` [Example 211, 1-[(2R)-2-[[6-[(6-methoxy-2-methyl-3,4-dihydro-1H-isoquinolin-7-yl)amino]pyrazolo[3,4-d]pyrimidin-1-yl]methyl]-1-piperidyl]ethenone hydrochloride], the IC50 was in the range of 100 to 250 nM. The same measure for `COc1cc2c(cc1Nc1ncc3cnn(C[C@@H]4CCCC[C@H]4CO)c3n1)CN(C)CC2` (racemic) [Example 165, [rac-trans-2-[[6-[(6-methoxy-2-methyl-3,4-dihydro-1H-isoquinolin-7-yl)amino]pyrazolo[3,4-d]pyrimidin-1-yl]methyl]cyclohexyl]methanol]: less than 100 nM. The same measure for `CCN1CCc2cc(OC)c(Nc3ncc4cnn([C@H]5CC[C@H](O)CC5)c4n3)cc2C1` [Example 155, trans-4-(6-((2-ethyl-6-methoxy-1,2,3,4-tetrahydroisoquinolin-7-yl)amino)-1H-pyrazolo[3,4-d]pyrimidin-1-yl)cyclohexan-1-ol]: less than 100 nM; for `CN1CCc2ccc(Nc3ncc4cnn([C@H]5CC[C@H](C(=O)O)CC5)c4n3)cc2C1` [Example 32, (1r,4r)-4-(6-((2-methyl-1,2,3,4-tetrahydroisoquinolin-7-yl)amino)-1H-pyrazolo[3,4-d]pyrimidin-1-yl)cyclohexane-1-carboxylic acid]: less than 100 nM.

Turning to `COc1cc2c(cc1Nc1ncc3cnn([C@H]4CC[C@H](C(=O)N(C)C)CC4)c3n1)CN(C)CC2` [Example 55, (1r,4r)-4-(6-((6-methoxy-2-methyl-1,2,3,4-tetrahydroisoquinolin-7-yl)amino)-1H-pyrazolo[3,4-d]pyrimidin-1-yl)-N,N-dimethylcyclohexane-1-carboxamide], the IC50 is less than 100 nM. `COc1cc2c(cc1Nc1ncc3cnn(C(C)C(C)(C)C#N)c3n1)CN(C)CC2` (centres unmarked) [Example 151, 3-(6-((6-methoxy-2-methyl-1,2,3,4-tetrahydroisoquinolin-7-yl)amino)-1H-pyrazolo[3,4-d]pyrimidin-1-yl)-2,2-dimethylbutanenitrile hydrochloride]: the IC50 was less than 100 nM. For the compound `COc1cc2c(cc1Nc1ncc3cnn(C[C@@H]4C[C@@H](O)CN4C(C)=O)c3n1)CN(C)CC2` [Example 130, 1-((2S,4R)-4-hydroxy-2-((6-((6-methoxy-2-methyl-1,2,3,4-tetrahydroisoquinolin-7-yl)amino)-1H-pyrazolo[3,4-d]pyrimidin-1-yl)methyl)pyrrolidin-1-yl)ethan-1-one trifluoroacetate], the IC50 was less than 100 nM. Consider `COc1cc2c(cc1Nc1ncc3c(C)nn(C[C@@H]4CCCN4S(C)(=O)=O)c3n1)CN(C)CC2` [Example 116, (S)-6-methoxy-2-methyl-N-(3-methyl-1-((1-(methylsulfonyl)pyrrolidin-2-yl)methyl)-1H-pyrazolo[3,4-d]pyrimidin-6-yl)-1,2,3,4-tetrahydroisoquinolin-7-amine], for which the IC50 lay within 100 to 250 nM.
